Patent publication US10759793B2, “2-(pyrazolopyridin-3-yl)pyrimidine derivatives as JAK inhibitors” (ALMIRALL, S.A., priority 2015, dated 2020)
pIC50: −log10 of the molar value.

Tests used:
Type in all cases: biochemical
JAK3 = JAK3 (Homo sapiens (Human), UniProt P52333); assay: In vitro JAK kinase assay (TR-FRET), JAK3; settings: catalytic domain aa 795-1124, GST-fusion; ATP 0.6 μM; peptide 140 nM; 30 minutes at room temperature
Procedure: (§1) Compounds were screened for their ability to inhibit JAK1, JAK2 and JAK3 using the assays as indicated below. […] The enzymatic activity was assayed using as substrate a biotinylated peptide, poly (GT)-Biotin (CisBio). […] The degree of phosphorylation was detected by TR-FRET (time-resolved fluorescence energy transfer). […] The enzymatic reactions took place for 30 minutes at room temperature. […] Incubate for 3 h and read on Victor 2V spectrofluorometer (Perkin Elmer) set to read fluorescence resonance energy transfer.

JAK2 = JAK2 (Homo sapiens (Human), UniProt O60674); assay: In vitro JAK kinase assay (TR-FRET), JAK2; settings: catalytic domain aa 826-1132, GST-fusion; ATP 0.2 μM; peptide 20 nM; 30 minutes at room temperature
Procedure: as §1

JAK1 = JAK1 (Homo sapiens (Human), UniProt P23458); assay: In vitro JAK kinase assay (TR-FRET), JAK1; settings: catalytic domain aa 850-1154, GST-fusion; ATP 3 μM; peptide 60 nM; 30 minutes at room temperature
Procedure: as §1

JAK1, sequence (P23458 850-1154): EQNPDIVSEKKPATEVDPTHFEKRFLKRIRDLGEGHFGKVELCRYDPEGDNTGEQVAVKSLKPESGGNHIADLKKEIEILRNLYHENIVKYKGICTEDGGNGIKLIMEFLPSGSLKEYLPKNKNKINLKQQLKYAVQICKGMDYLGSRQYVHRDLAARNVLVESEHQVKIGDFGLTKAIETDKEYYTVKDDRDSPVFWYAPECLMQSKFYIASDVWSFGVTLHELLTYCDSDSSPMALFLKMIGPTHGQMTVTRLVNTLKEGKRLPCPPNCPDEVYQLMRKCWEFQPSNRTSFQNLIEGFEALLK
JAK3, sequence (P52333 795-1124): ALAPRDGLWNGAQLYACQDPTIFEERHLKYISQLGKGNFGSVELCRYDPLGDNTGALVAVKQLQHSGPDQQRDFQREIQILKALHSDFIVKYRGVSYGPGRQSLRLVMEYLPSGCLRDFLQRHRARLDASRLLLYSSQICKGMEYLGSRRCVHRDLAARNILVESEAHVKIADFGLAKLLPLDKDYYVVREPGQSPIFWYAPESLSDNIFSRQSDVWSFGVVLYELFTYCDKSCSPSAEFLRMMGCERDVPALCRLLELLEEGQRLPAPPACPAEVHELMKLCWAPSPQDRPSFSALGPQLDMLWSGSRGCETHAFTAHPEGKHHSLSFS
JAK2, sequence (O60674 826-1132): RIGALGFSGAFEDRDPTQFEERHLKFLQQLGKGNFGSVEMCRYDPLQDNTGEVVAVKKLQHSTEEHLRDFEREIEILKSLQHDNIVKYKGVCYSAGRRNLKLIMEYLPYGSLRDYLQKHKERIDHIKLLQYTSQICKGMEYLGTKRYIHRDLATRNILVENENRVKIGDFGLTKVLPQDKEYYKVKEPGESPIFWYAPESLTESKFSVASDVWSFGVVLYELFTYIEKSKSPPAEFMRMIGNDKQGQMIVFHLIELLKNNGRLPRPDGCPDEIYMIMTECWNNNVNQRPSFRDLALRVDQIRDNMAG

Molecule	pIC50 (JAK3)	pIC50 (JAK2)	pIC50 (JAK1)
Cc1cc(-c2nc(-c3cnn4ccccc34)nc(N[C@@H]3CCCN(C(=O)CC#N)C3)c2F)cc(C)n1 [Example 87, 3-((3R)-3-{[6-(2,6-Dimethylpyridin-4-yl)-5-fluoro-2-pyrazolo[1,5-a]pyridin-3-ylpyrimidin-4-yl]amino}piperidin-1-yl)-3-oxopropanenitrile]	8.52	9.00	8.00
O=C(CO)N1CCC[C@@H](Oc2nc(-c3cnn4ccccc34)nc(N3CCOCC3)c2F)C1 [Example 52, 2-{(3R)-3-[(5-Fluoro-6-morpholin-4-yl-2-pyrazolo[1,5-a]pyridin-3-ylpyrimidin-4-yl)oxy]piperidin-1-yl}-2-oxoethanol]	7.96	9.00	7.96
N#CC[C@H]1CC[C@H](Nc2nc(-c3cnn4ccccc34)nc(OCCO)c2F)CC1 [Example 5, (Trans-4-{[5-fluoro-6-(2-hydroxyethoxy)-2-pyrazolo[1,5-a]pyridin-3-ylpyrimidin-4-yl]amino}cyclohexyl)acetonitrile]	8.70	9.30	8.05
O=C(CO)N1CCC[C@@H](Nc2nc(-c3cnn4ccccc34)nc(-c3cncc(CO)c3)c2F)C1 [Example 88, 2-[(3R)-3-({5-Fluoro-6-[5-(hydroxymethyl)pyridin-3-yl]-2-pyrazolo[1,5-a]pyridin-3-ylpyrimidin-4-yl}amino)piperidin-1-yl]-2-oxoethanol]	8.40	9.00	7.85
N#CCC(=O)N1CCC[C@@H](Nc2nc(-c3cnn4ccccc34)nc(-c3ccc(CO)nc3)c2F)C1 [Example 85, 3-[(3R)-3-({5-Fluoro-6-[6-(hydroxymethyl)pyridin-3-yl]-2-pyrazolo[1,5-a]pyridin-3-ylpyrimidin-4-yl}amino)piperidin-1-yl]-3-oxopropanenitrile]	8.40	9.00	9.00
C[C@H](O)COc1nc(-c2cnn3ccccc23)nc(O[C@@H]2CCCN(C(=O)CO)C2)c1F [Example 90, (2S)-1-[(5-Fluoro-6-{[(3R)-1-glycoloylpiperidin-3-yl]oxy}-2-pyrazolo[1,5-a]pyridin-3-ylpyrimidin-4-yl)oxy]propan-2-ol]	8.40	9.00	7.85
CCOCCOc1nc(-c2cnn3ccccc23)nc(N[C@@H]2CCCN(C(=O)CC#N)C2)c1F [Example 16, 3-((3R)-3-{[6-(2-ethoxyethoxy)-5-fluoro-2-pyrazolo[1,5-a]pyridin-3-ylpyrimidin-4-yl]amino}piperidin-1-yl)-3-oxopropanenitrile]	9.00	9.15	8.40
COCCOc1cc(N[C@@H]2CCCN(C(=O)CO)C2)nc(-c2cnn3ccccc23)n1 [Example 96, 2-((3R)-3-{[6-(2-Methoxyethoxy)-2-pyrazolo[1,5-a]pyridin-3-ylpyrimidin-4-yl]amino}piperidin-1-yl)-2-oxoethanol]	8.70	9.00	8.22
N#CC[C@H]1CC[C@H](Nc2nc(-c3cnn4ccccc34)nc(N3CCC(N)CC3)c2F)CC1 [Example 2, (Trans-4-{[6-(4-aminopiperidin-1-yl)-5-fluoro-2-pyrazolo[1,5-a]pyridin-3-ylpyrimidin-4-yl]amino}cyclohexyl)acetonitrile]	8.40	9.00	7.09
O=C(CO)N1CCC[C@@H](Nc2nc(-c3cnn4ccccc34)nc(OCCCO)c2F)C1 [Example 41, 3-[(5-Fluoro-6-{[(3R)-1-glycoloylpiperidin-3-yl]amino}-2-pyrazolo[1,5-a]pyridin-3-ylpyrimidin-4-yl)oxy]propan-1-ol]	8.52	9.00	8.10
CN(C)c1ccc(-c2nc(-c3cnn4ccccc34)nc(N[C@@H]3CCCN(C(=O)CO)C3)c2F)cn1 [Example 81, 2-[(3R)-3-({6-[6-(Dimethylamino)pyridin-3-yl]-5-fluoro-2-pyrazolo[1,5-a]pyridin-3-ylpyrimidin-4-yl}amino)piperidin-1-yl]-2-oxoethanol]	8.70	9.00	8.52
Cc1ccc(-c2nc(-c3cnn4ccccc34)nc(N[C@@H]3CCCN(C(=O)CO)C3)c2F)cn1 [Example 36, 2-((3R)-3-{[5-Fluoro-6-(6-methylpyridin-3-yl)-2-pyrazolo[1,5-a]pyridin-3-ylpyrimidin-4-yl]amino}piperidin-1-yl)-2-oxoethanol]	8.70	9.30	8.70
C[C@@H](CO)Oc1nc(-c2cnn3ccccc23)nc(N[C@@H]2CCCN(C(=O)CO)C2)c1F [Example 59, (2S)-2-[(5-Fluoro-6-{[(3R)-1-glycoloylpiperidin-3-yl]amino}-2-pyrazolo[1,5-a]pyridin-3-ylpyrimidin-4-yl)oxy]propan-1-ol]	8.40	8.52	7.54
CCOC(=O)C1CCN(c2nc(-c3cnn4ccccc34)nc(N[C@@H]3CCCN(C(=O)CC#N)C3)c2F)CC1 [Example 30, Ethyl 1-(6-{[(3R)-1-(cyanoacetyl)piperidin-3-yl]amino}-5-fluoro-2-pyrazolo[1,5-a]pyridin-3-ylpyrimidin-4-yl)piperidine-4-carboxylate]	8.70	9.22	8.40
[Trans-4-({6-[2-(dimethylamino)ethoxy]-5-fluoro-2-pyrazolo[1,5-a]pyridin-3-ylpyrimidin-4-yl}amino)cyclohexyl]acetonitrile [Example 10]	9.15	9.30	7.49
O=C(CO)N1CCC[C@@H](Nc2nc(-c3cnn4ccccc34)nc(N3CCC(CO)CC3)c2F)C1 [Example 23, 2-[(3R)-3-({5-Fluoro-6-[4-(hydroxymethyl)piperidin-1-yl]-2-pyrazolo[1,5-a]pyridin-3-ylpyrimidin-4-yl}amino)piperidin-1-yl]-2-oxoethanol]	8.30	9.00	8.10
CN(C)C1CCN(c2nc(-c3cnn4ccccc34)nc(N[C@H]3CC[C@H](CC#N)CC3)c2F)CC1 [Example 4, [Trans-4-({6-[4-(dimethylamino)piperidin-1-yl]-5-fluoro-2-pyrazolo[1,5-a]pyridin-3-ylpyrimidin-4-yl}amino)cyclohexyl]acetonitrile]	8.40	9.00	6.66
O=C(CO)N1CCC[C@@H](Nc2cc(-c3cncc(O)c3)nc(-c3cnn4ccccc34)n2)C1 [Example 105, 5-(6-{[(3R)-1-Glycoloylpiperidin-3-yl]amino}-2-pyrazolo[1,5-a]pyridin-3-ylpyrimidin-4-yl)pyridin-3-ol]	8.30	8.30	8.70
Cc1cc(-c2nc(-c3cnn4ccccc34)nc(O[C@@H]3CCCN(C(=O)CC#N)C3)c2F)ccn1 [Example 72, 3-((3R)-3-{[5-Fluoro-6-(2-methylpyridin-4-yl)-2-pyrazolo[1,5-a]pyridin-3-ylpyrimidin-4-yl]oxy}piperidin-1-yl)-3-oxopropanenitrile]	8.22	9.00	8.22
N#CCC(=O)N1CCC[C@@H](Nc2nc(-c3cnn4ccccc34)nc(-c3ccc(N)nc3)c2F)C1 [Example 18, 3-((3R)-3-{[6-(6-Aminopyridin-3-yl)-5-fluoro-2-pyrazolo[1,5-a]pyridin-3-ylpyrimidin-4-yl]amino}piperidin-1-yl)-3-oxopropanenitrile]	8.70	9.22	9.00
